This is an account of results in publication PMC6804157, “Synthesis, Physicochemical Properties, and Biological Activities of 4-(S-Methyl-N-(2,2,2-Trifluoroacetyl)Sulfilimidoyl) Anthranilic Diamide” (Molecules, 2019).

“And” between values parts separate entries of the source, which are not always exact repeats. Identical values can stand only once. Like-named read-outs stand apart in the source and are kept apart here.

In general, solubility refers to how much of the substance goes into solution per volume. A high value points to a readily soluble substance. A word on the logP: it is the decadic logarithm of the partition coefficient of the neutral form, usually between octanol and water. High values mean higher lipophilicity, low ones lower lipophilicity.

Series [1] in a line: Equilibrium solubility (μSOL). The class given is physicochemical. The note with it: 25 °C, pH 7.4, aqueous buffer, thermodynamic from solid. As to the method:
(§1) Because we believed that the physicochemical properties of newly-prepared diamides play important roles in their insecticidal activities, the studies were extended to investigate the bioavailability of organosulfur-based crop-protecting agents 14, 15a, 15b, 16a, and 16b in terms of plant systemic properties and membrane permeability. As references, their properties of chlorantraniliprole and cyantraniliprole were also measured.
(§2) [37] The physicochemical measurements for determinations of equilibrium solubility, log P, and PAMPA permeability were performed by Drug Discovery Platform Technology Team, KRICT, Korea.
(§3) Table S3. Physical properties of organosulfur-substituted anthranilic […]
(§4) Entry X Y Log P c,d Permeability e […]
(§5) aMethod for determination of equilibrium solubility: μSOL 25; bat 25 ℃ and pH 7.4; cUsing ACD / Labs T3 method (pH – metric); dfor graphs, please see the supporting information, eMethod for determination of […]

Series [2] is classed as in vitro ADME. The settings on record: PAMPA. On the procedure: as §1, §2, §3, §4, §5
On the technique in general: PAMPA measures passive passage across an artificial lipid membrane.

For series [3], the system named is third instar larvae of Spodoptera litura. Description: whole plant or invertebrate. The class given is in vivo. The settings on record: for mortality at 50 ppm: Spodoptera litura. On the procedure: For the practical test, newly-prepared compounds 14–16 were evaluated for their insecticidal activities against the third instar larvae of Spodoptera litura according to the reported leaf-dip method.
[35] According to the literature 3a, 3b, and 3d methods, the insecticidal assays were performed by Kyung Nong Co. Ltd., Korea. In detail, please see the Supplementary materials.
Table S1 and S2: Larvicidal activity against Spodoptera (14 and 15a)
The lavicidal activities of synthesized compounds were evaluated by the leaf-dip procedure. 6 The aqueous solution of prepared compounds and chlorantraniliprole in acetone (H 2O : acetone = 95 : 5) were sprayed to a cabbage leave placed on moistened filter paper (disc, diameter 8.8 cm) in petri dishes. After allowing to dry, the dishes were infested with 10 Spodoptera litura (third-instar). After 1, 2, 3, and 4 days, percentage of mortalities was evaluated. The treatments were replicated three times. For negative control, larvicidal activities were 0 % at each time. Ref. is chlorantraniliprole as a positive control.
Table S1. Larvicidal activity depend on time against the 3 rd instar larvae of Spodoptera litura
Entry Compd Concentration Larvicidal activity (%) at 24 h
Entry Compd Concentration Larvicidal activity (%) at 48 h

Series [4] can be described thus: pH-metric log P (ACD/Labs T3 method). The class given is physicochemical. On the procedure: as §1
[39] For LogP, Using ACD/Labs T3 method (pH—metric), for graphs; please see the Supplementary materials.
as §3, §4, §5

`CNC(=O)c1cc(SC)cc(C)c1NC(=O)c1cc(Br)nn1-c1ncccc1Cl` [Compound 14, 3-Bromo-1-(3-chloropyridin-2-yl)-N-(2-methyl-6-(methylcarbamoyl)-4-(methylthio)phenyl)-1H-pyrazole-5-carboxamide]: the solubility in series [1] is 5.4 µM and 2.67 µg/mL. Besides, the Permeability entry in series [2] is listed as “- 4.3 ± 0.047”. Also, the mortality at 50 ppm in series [3] (24 h, read-out: Larvicidal activity (%) at 24 h, Average, 24 h, average of three replicates) was 0%; in series [3] (24 h, read-out: Larvicidal activity (%) at 24 h, replicate 1, 24 h), 0%; in series [3] (24 h, read-out: Larvicidal activity (%) at 24 h, replicate 2, 24 h), 0%; in series [3] (24 h, read-out: Larvicidal activity (%) at 24 h, replicate 3, 24 h), 0%; in series [3] (48 h, read-out: Larvicidal activity (%) at 48 h, Average, 48 h, average of three replicates), 13.3%; in series [3] (48 h, read-out: Larvicidal activity (%) at 48 h, replicate 1, 48 h), 20%. Further, the mortality at 50 ppm in series [3] (48 h, read-out: Larvicidal activity (%) at 48 h, replicate 2, 48 h) stood at 0%; in series [3] (48 h, read-out: Larvicidal activity (%) at 48 h, replicate 3, 48 h), 20%; in series [3] (72 h, read-out: Larvicidal activity (%) at 72 h, replicate 1, 72 h), 70%; in series [3] (72 h, read-out: Larvicidal activity (%) at 72 h, replicate 2, 72 h) it was 30%; in series [3] (72 h, read-out: Larvicidal activity (%) at 72 h, replicate 3, 72 h), 40%; in series [3] (96 h, read-out: Larvicidal activity (%) at 96 h, replicate 1, 96 h), 80%. The mortality at 50 ppm was 70% in series [3] (96 h, read-out: Larvicidal activity (%) at 96 h, replicate 2, 96 h) and 70% in series [3] (96 h, read-out: Larvicidal activity (%) at 96 h, replicate 3, 96 h). Moreover, the mortality is 46.7% in series [3] (read-out: Larvicidal Activity (%) at Time (h) 72 h, third instar larvae of S. litura, 72 h, concentration of 14 and 15a 50 ppm); 73.3% in series [3] (read-out: Larvicidal Activity (%) at Time (h) 96 h, third instar larvae of S. litura, 96 h, concentration of 14 and 15a 50 ppm). Also, in series [3] (third instar larvae of S. litura, 96 h, concentration of 14 and 15a 50 ppm), the “Eating Area (%) 96 h” value is recorded as 5–10%. In addition, in series [4], the logP is 3.45.
